Assay results taken from patent publication US20140296257A1, “High-Loading Water-Soluable Carrier-Linked Prodrugs” (Ascendis Pharma A/S, priority 2011, published 2014).

Conditions: pH 7.4 buffer, 37° C., released paliperidone plotted against time
Method: Sample was incubated at 37° C. At various time points aliquots were analyzed by UPLC and the amount of released paliperidone was plotted against time. […] Curve fitting software was used to determine half life time of drug release from the respective conjugate.

With “4-arm PEG 20 kDa-octapaliperidone [Conjugate 5]” the Drug release kinetics was “first order kinetics”.
